Laboratory results reported in US4125501A, “Phosphites of sugar alcohols and polymers stabilized therewith” (Hoechst Aktiengesellschaft, priority 1976, dated 1978).

Columns and labels:
[1] = dynamic heat stability (rolling stability) in polyvinyl chloride; settings: 180° C, 20 rpm, 0.5 part phosphite per 100 parts PVC
Experimental: Each time 100 parts of a mass polyvinyl chloride having a K value of 60 were intimately mixed with
0.2 part of 2-phenyl-indole,
3.0 parts of epoxidized soybean oil
0.3 part of stearyl stearate
0.5 part of glycerol monostearate and
0.5 part each of respective phosphite of the invention.
To measure the dynamic heat stability (rolling stability) the mixtures were rolled on a two roll mill at 180° C. and with 20 revolutions per minute. At intervals of 10 minutes samples were taken from the rough sheet and the color of the samples was compared with the colors of a proper color chart. Rolling was continued until the rough sheet had turned black.
In the color chart used the individual notes have the following meaning: […]

[2] = stability to hydrolysis (boiling in deionized water, titration of liberated phosphorous acid); format: physicochemical; settings: for degree of hydrolysis after 60 minutes: 1 h
Experimental: The stability to hydrolysis was tested according to the process disclosed in DT-OS 2,144,181, pages 7/8. 5.0 g each of the respective phosphite were boiled for 20 and 60 minutes in 100 ml of deionized water. The mixture was then allowed to cool, it was filtered to remove residues, if any, and in the filtrate the liberated phosphorous acid was titrated with 0.1N KOH against bromophenol blue.
In the following table is indicated the degree of hydrolysis determined under the specified conditions as quotient of the actual consumption of KOH and the theoretically possible consumption with a complete hydrolysis.

[3] = acute toxicity in male albino mice, per os; format: in vivo
Experimental: To test the acute toxicities of the compounds of the invention male albino mice were fed as prescribed in the book "Grundlagen der experimentellen Arzneimittelforschung" by Leopold Ther, addition 1965.
The phosphite to be tested was administered per os, suspended in aqueous methyl cellulose (Tylose^R) solution, to groups of 5 test animals each, the doses being 1,000, 2,000, and 5,000 mg/kg of body weight.

Molecule	degree of hydrolysis after 20 minutes [2]	degree of hydrolysis after 60 minutes [2]	also measured
CCCCCCCCCCCCCCCCCCOP1OCC2(CO1)COP(OCCCCCCCCCCCCCCCCCC)OC2 (stereo not drawn) [distearyl-pentaerythrityl-diphosphite]			dynamic (rolling) stability, discoloration of rough sheet after a rolling time of 40' ([1]; 40'): 4; dynamic (rolling) stability, discoloration of rough sheet after a rolling time of 50' ([1]; 50'): 5
Tri-(β-hydroxy-triacontyl)-sorbityl-triphosphite [Example 1]	1.8 % of theory	2.4 % of theory	
Di-(β-hydroxy-triacontyl)-sorbityl-diphosphite [Example 2]	22.5 % of theory		toxicity assessment ([3]; acute): practically innocuous; deaths at the highest dosage ([3]; per os, highest dose 5,000 mg/kg of body weight): no animal died

More lines, main results first:

degree of hydrolysis after 20 minutes [2]	degree of hydrolysis after 60 minutes [2]	Molecule	also measured
1.0 % of theory	2.0 % of theory	Di-(β-hydroxy-eicosyl)-mono-thiododecyl-mannityl-triphosphite [Example 5]	
1.5 % of theory	3.6 % of theory	Di-(β-hydroxy-triacontyl)-mono-thiododecyl-sorbityl-triphosphite [Example 4]	
21.0 % of theory		Di-(β-hydroxy-triacontyl)-mannityl-diphosphite [Example 3]	
